Laboratory results taken from patent publication US20260207626A1, “SYNTHETIC TRITERPENOIDS AND COMPOSITIONS THEREOF IN WEIGHT MANAGEMENT, SKELETAL MUSCLE FUNCTION, AND APPETITE SUPPRESSION” (The Board of Regents of the University of Texas System, priority 2022, published 2026).
Several values for one entry are separate records, joined by “and”; a condition that tells them apart may be missing. Identical values can stand only once.

What was measured:
MCP-1 = test: LPS-induced MCP-1 ELISA in RAW264.7 macrophages (CDDO-EA batches); assay type: cell-based, mouse; settings: for MCP-1 production: LPS-induced, macrophages in cell culture; for MCP-1 level (ELISA), average: Table 4 (two values); for fold difference in the decrease of MCP-1 production: versus LPS alone
Method: Macrophages were pre-treated with 500 nM CDDO-EA #1 or 500 nM CDDO-EA #2, for 1 hour. The microphages were then stimulated with 100 ng/ml of lipopolysaccharide (LPS) for 6 hr. Supernatants were collected from each culture. An enzyme linked immunoassay (ELISA) was performed to detect levels of the pro-inflammatory protein, monocyte chemotactic protein-1 (MCP-1). The macrophages were also treated with LPS alone or with CDDO-EA alone. A control (no treatment) group was also included in the study.
The second batch of CDDO-EA was tested for its biological property of anti-inflammatory activity. As with the first batch of CDDO-EA, this was tested by using the mouse macrophage cell line RAW264.7. RAW264.7 macrophages were pre-treated with 500 nM CDDO-EA for 1 hour then stimulated with 100 ng/ml of lipopolysaccharide (LPS) for 6 hr. Supernatants were collected, and an enzyme linked immunoassay (ELISA) was performed to detect the pro-inflammatory protein, monocyte chemotactic protein-1 (MCP-1). The macrophages were also treated with LPS alone or with CDDO-EA alone. A control (no treatment) group was also included in the study. […] This suppression of MCP-1 production by the second batch CDDO-EA is similar to that observed for the first batch of CDDO-EA. (See FIG. 21).

[1] = system: heme-oxygenase-1 and Nrf2/ARE signaling; settings: Liby et al., 2005; cited from earlier work
[2] = Shin et al.; oral gavage 30 μmol/kg three times a week, HFD 82 days; interpretation questioned by the applicant; cited from earlier work
[3] = system: transforming growth factor-β (TGF-β)/Smad signaling; settings: Suh et al., 2003, Minns et al., 2004, Mix et al.; cited from earlier work
IκB-α = settings: Saha et al.; liver homogenates, HFD mice; cited from earlier work
AMPK = settings: Saha et al.; cited from earlier work
N171-82Q mice = settings: cited from earlier work
GLUT4 [4] = test: Colorimetric assay of cell surface GLUT4 in L6GLUT4myc myotubes (preliminary data); assay type: cell-based, rat; settings: FIG. 30
Method: Is CDDO-EA-mediated GLUT4 translocation dependent on AMPK activation? The catalytic subunit alpha-1 (α1) of AMPK will be KD by siRNA. Cells will be treated with CDDO-EA (500 nM, 1 hour), insulin ([…] for 15 min), or insulin and CDDO-EA to determine if there is a synergistic effect on GLUT4 translocation. Also, cells will be treated with the AMPK activator, 5-aminoimidazole-4-carboxamide ribonucleoside (AICAR, 1 mM, 40 minutes), as a positive control. We will use a colorimetric assay to quantitatively measure the levels of cell surface GLUT4 in 3T3-L1 adipocytes and L6GLUT4myc myotubes^37. […] GLUT4 translocation will be detected via immunofluorescence. Subcellular protein fractionation will be conducted to detect GLUT4 in the sarcolemma for myotubes and plasma membrane for adipocytes and GLUT2 in the plasma membrane of hepatocytes via Western blotting. GLUT2 will be measured in hepatocytes because GLUT2 is the most abundant glucose transporter in hepatocytes^38. To measure glucose uptake, a non-radioactive, plate-based bioluminescent assay (Glucose Uptake-Glo, Promega) will be performed. Using Glucose Uptake-Glo, insulin induces glucose uptake in L6GLUT4my myotubes. Phosphorylation of AMPK at Thr^172 and phosphorylation of ACC at Ser^79 indicates activation of the AMPK pathway. Thus, phosphorylation of AMPK Thr^172 and ACC Ser^79 will be shown through Western blotting. […]

GLUT4 [5] = test: GLUT4myc translocation by immunofluorescence in L6-GLUT4myc myotubes; assay type: cell-based, rat; settings: CDDO-EA 500 nM 1 h; insulin 100 nM 15 min
Method: Immunofluorescence and confocal microscopy were employed to visualize the localization of c-myc epitope-tagged GLUT4 in L6-GLUT4myc myotubes treated with CDDO-EA for 1 h. L6-GLUT4myc myotubes were also treated with insulin alone for 15 min as a positive control.
To examine the properties of CDDO-EA in regulating glucose metabolism in the skeletal muscle, the present study examined whether CDDO-EA induces translocation of GLUT4 to the cell surface (FIG. 16A). Immunofluorescence and confocal microscopy were used to visualize the localization of c-myc epitope-tagged GLUT4 in L6-GLUT4myc cells.
Immunofluorescence microscopy: L6-GLUT4myc myoblasts (4×10^4 cells/ml, 0.2 ml/well) were plated onto Nunc Lab-TekII 8-chamber slides (Thermo Fisher Scientific) and differentiated for 7 days. Myotubes were pre-treated with CDDO-EA 500 nM for 1 h followed by LPS 100 ng/ml (E. coli O111: B4, Sigma Aldrich) treatment for 1 h. After treatment, myotubes were fixed, permeabilized, and stained with anti-NF-κB p65 primary antibody (cat #sc-372, 1:100, Santa Cruz Biotechnology) and a goat anti-rabbit secondary antibody conjugated with Alexa Fluor® 488 (cat #A32731, 1:500, Invitrogen) as previously described. For GLUT4myc cell membrane staining, myotubes were pre-treated with CDDO-EA 500 nM for 1 h followed by LPS 100 ng/ml (E. coli 0111: B4, Sigma Aldrich) treatment for 1 h. Insulin 100 nM (cat #19278, Sigma Aldrich) treatment was for 15 min. After CDDO-EA, LPS, and insulin treatment, myotubes were fixed without permeabilization and stained with anti-c-myc primary antibody (cat #C3956, 1:100, Sigma Aldrich) and a goat anti-rabbit secondary antibody conjugated with Alexa Fluor® 488 (cat #A32731, 1:500, Invitrogen) as previously described.

[6] = RAW264.7, 500 nM CDDO-EA batch 1 hour then 100 ng/ml LPS 6 hr
[7] = RAW264.7, 500 nM CDDO-EA batch alone, no LPS
[8] = 500 nM CDDO-EA batch 1 hour then 100 ng/ml LPS 6 hr
[9] = 500 nM CDDO-EA batch alone, no LPS
[10] = Table 5, 500 nM CDDO-EA batch 1 hour then 100 ng/ml LPS 6 hr
[11] = Table 5, 500 nM CDDO-EA batch alone, no LPS

## CCNC(=O)[C@]12CCC(C)(C)C[C@H]1C1C(=O)C=C3[C@@]4(C)C=C(C#N)C(=O)C(C)(C)[C@@H]4CC[C@@]3(C)[C@]1(C)CC2 (stereo partly drawn) [CDDO-EA #1, (4aS,6aR,6bS,8aR,12aS,14bS)-11-cyano-N-ethyl-2,2,6a,6b,9,9,12a-heptamethyl-10,14-dioxo-1,3,4,5,6,6a,6b,7,8,8a,9,10,12a, 14,14a, 14b-hexadecahydropicene-4a (2H)-carboxamide]
MCP-1; listed as Batch #1 CDDO-EA
  MCP-1 production: 31300 pg/mL
  fold difference in the decrease of MCP-1 production: about 3.6 fold
MCP-1; [6]
  MCP-1 level (ELISA), individual values: 30687 and 31996 and 20309 and 17055
MCP-1; [7]
  MCP-1 level (ELISA), individual values: 717 and 655 and 740 and 870
MCP-1; [8]
  MCP-1 level (ELISA), average: 31341
MCP-1; [9]
  MCP-1 level (ELISA), average: 686
MCP-1; [10]
  MCP-1 level (ELISA), mean of four values: 25012
MCP-1; [11]
  MCP-1 level (ELISA), mean of four values: 746

## CCNC(=O)[C@]12CCC(C)(C)C[C@H]1C1C(=O)C=C3[C@@]4(C)C=C(C#N)C(=O)C(C)(C)[C@@H]4CC[C@@]3(C)[C@]1(C)CC2 (stereo partly drawn) [CDDO-EA #2, (4aS,6aR,6bS,8aR,12aS,14bS)-11-cyano-N-ethyl-2,2,6a,6b,9,9,12a-heptamethyl-10,14-dioxo-1,3,4,5,6,6a,6b, 7,8,8a,9,10,12a, 14,14a, 14b-hexadecahydropicene-4a (2H)-carboxamide]
MCP-1; listed as Batch #2 CDDO-EA
  MCP-1 production: 24600 pg/mL
  fold difference in the decrease of MCP-1 production: ~4.6 fold
MCP-1; RAW264.7, 500 nM 1 hour then 100 ng/ml LPS 6 hr
  LPS-induced production of MCP-1: blocked the LPS-induced production of MCP-1
MCP-1; [6]
  MCP-1 level (ELISA), individual values: 23503 and 25793 and 11890 and 14316
MCP-1; [7]
  MCP-1 level (ELISA), individual values: 481 and 497 and 314 and 587
MCP-1; [8]
  MCP-1 level (ELISA), average: 24648
MCP-1; [9]
  MCP-1 level (ELISA), average: 489
MCP-1; [10]
  MCP-1 level (ELISA), mean of four values: 18875
MCP-1; [11]
  MCP-1 level (ELISA), mean of four values: 470

## CC1(C)CC[C@]2(C(=O)n3ccnc3)CC[C@]3(C)[C@H](C(=O)C=C4[C@@]5(C)C=C(C#N)C(=O)C(C)(C)[C@@H]5CC[C@]43C)[C@@H]2C1 [CDDO-Im]
[1]
  induction of heme-oxygenase-1 and Nrf2/ARE signaling: potent inducers of heme-oxygenase-1 and Nrf2/ARE signaling
[2]
  energy expenditure (EE): increases energy expenditure (EE) in mice fed a HFD
[3]
  modulation of TGF-β/Smad signaling: ability to modulate transforming growth factor-β (TGF-β)/Smad signaling

## COC(=O)[C@]12CCC(C)(C)C[C@H]1C1C(=O)C=C3[C@@]4(C)C=C(C#N)C(=O)C(C)(C)[C@@H]4CC[C@@]3(C)[C@]1(C)CC2 (stereo partly drawn) [CDDO-Me, methyl (4aS,6aR,6bS,8aR,12aS,14bS)-11-cyano-2,2,6a,6b,9,9,12a-heptamethyl-10,14-dioxo-1,3,4,5,6,6a,6b,7,8,8a,9,10,12a, 14,14a, 14b-hexadecahydropicene-4a (2H)-carboxylate]
[1]
  induction of heme-oxygenase-1 and Nrf2/ARE signaling: potent inducers of heme-oxygenase-1 and Nrf2/ARE signaling
[3]
  modulation of TGF-β/Smad signaling: ability to modulate transforming growth factor-β (TGF-β)/Smad signaling
IκB-α
  phosphorylation of IκB-α: increase in phosphorylation of IκB-α
AMPK
  AMPK signaling: activated AMPK signaling in isolated mouse hepatocytes and C2C12 muscle cells

## CC1(C)CC[C@]2(C(=O)NCC(F)(F)F)CC[C@]3(C)[C@H](C(=O)C=C4[C@@]5(C)C=C(C#N)C(=O)C(C)(C)[C@@H]5CC[C@]43C)[C@@H]2C1 [CDDO-TFEA]
N171-82Q mice; N171-82Q mice
  muscle strength and balance, survival: improved muscle strength and balance and increased survival
N171-82Q mice; Stack et al. (2010)
  accumulation in the skeletal muscle: accumulated in the skeletal muscle
  oxidative stress in skeletal muscle: oxidative stress in skeletal muscle was reduced

## Insulin: positive control for GLUT4myc translocation, 100 nM for 15 min [reference compound]
GLUT4 [4]
  GLUT4 translocation to the cell surface (colorimetry assay): induce GLUT4 translocation to the cell surface
GLUT4 [5]
  GLUT4myc translocation to the cell surface: induced GLUT4myc translocation into the cell membrane
